Measured values as given in US20080051466A1, “Isoalpha acid based protein kinase modulation cancer treatment” (Metaproteomics, LLC, priority 2006, published 2008).

Key:
Experiment in all cases: KinaseProfiler Assay
Type in all cases: biochemical
[1] = biological target: CDK5/p35 (Homo sapiens, UniProt Q00535); settings: read-out: CDK5/p35, % of Control
[2] = biological target: T1, TSSK2 (Homo sapiens, UniProt Q96PF2); settings: read-out: TSSK2, % of Control
T1 sequence (Q96PF2 1-358): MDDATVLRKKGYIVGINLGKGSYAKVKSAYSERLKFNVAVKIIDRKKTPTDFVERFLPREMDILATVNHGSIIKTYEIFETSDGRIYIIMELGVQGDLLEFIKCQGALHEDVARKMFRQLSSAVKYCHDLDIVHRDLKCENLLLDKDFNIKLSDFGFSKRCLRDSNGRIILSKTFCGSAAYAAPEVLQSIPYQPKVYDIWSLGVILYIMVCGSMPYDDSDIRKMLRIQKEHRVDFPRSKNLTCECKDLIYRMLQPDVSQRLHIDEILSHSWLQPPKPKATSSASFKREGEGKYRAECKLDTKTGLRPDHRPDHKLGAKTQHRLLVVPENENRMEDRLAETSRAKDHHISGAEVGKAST

[3] = biological target: CK1γ3 (Homo sapiens, UniProt Q9Y6M4); settings: read-out: CK1γ3, % of Control
Sequence of CK1γ3 (Q9Y6M4 whole entry): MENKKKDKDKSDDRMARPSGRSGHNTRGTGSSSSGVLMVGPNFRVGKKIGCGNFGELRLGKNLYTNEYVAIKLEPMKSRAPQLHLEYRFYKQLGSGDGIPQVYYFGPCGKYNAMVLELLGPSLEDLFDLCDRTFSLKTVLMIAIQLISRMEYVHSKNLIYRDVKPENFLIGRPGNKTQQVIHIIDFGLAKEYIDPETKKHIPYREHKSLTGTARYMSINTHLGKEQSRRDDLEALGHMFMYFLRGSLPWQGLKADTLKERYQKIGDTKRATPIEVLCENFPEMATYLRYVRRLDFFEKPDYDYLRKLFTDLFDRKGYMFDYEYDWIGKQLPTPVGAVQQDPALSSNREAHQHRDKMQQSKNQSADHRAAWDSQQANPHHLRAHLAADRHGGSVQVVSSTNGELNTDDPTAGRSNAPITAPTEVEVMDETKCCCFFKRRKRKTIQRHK

[4] = biological target: Hck (Homo sapiens, UniProt P08631); settings: read-out: Hck, % of Control
[5] = biological target: PAK6 (Homo sapiens, UniProt Q9NQU5); settings: read-out: PAK6, % of Control
[6] = biological target: cSRC (Homo sapiens, UniProt P12931); settings: read-out: cSRC, % of Control
Sequence of cSRC (P12931 whole entry): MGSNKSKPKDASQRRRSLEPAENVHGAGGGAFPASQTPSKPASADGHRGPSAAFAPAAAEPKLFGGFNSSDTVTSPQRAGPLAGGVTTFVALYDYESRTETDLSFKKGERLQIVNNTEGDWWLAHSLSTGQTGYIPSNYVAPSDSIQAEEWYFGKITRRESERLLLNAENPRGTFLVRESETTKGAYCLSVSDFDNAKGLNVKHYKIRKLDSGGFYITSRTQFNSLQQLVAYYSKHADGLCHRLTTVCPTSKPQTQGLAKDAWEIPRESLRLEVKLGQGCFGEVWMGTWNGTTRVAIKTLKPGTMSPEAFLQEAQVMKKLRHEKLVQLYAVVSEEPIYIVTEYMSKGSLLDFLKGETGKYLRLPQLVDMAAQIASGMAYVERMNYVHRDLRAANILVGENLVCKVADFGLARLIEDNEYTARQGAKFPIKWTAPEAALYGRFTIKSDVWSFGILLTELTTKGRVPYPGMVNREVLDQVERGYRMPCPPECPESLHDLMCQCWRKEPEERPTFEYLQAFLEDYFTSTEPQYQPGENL

[7] = biological target: CK1γ1 (Homo sapiens, UniProt Q9HCP0); settings: read-out: CK1γ1, % of Control
Sequence of CK1γ1 (Q9HCP0 whole entry): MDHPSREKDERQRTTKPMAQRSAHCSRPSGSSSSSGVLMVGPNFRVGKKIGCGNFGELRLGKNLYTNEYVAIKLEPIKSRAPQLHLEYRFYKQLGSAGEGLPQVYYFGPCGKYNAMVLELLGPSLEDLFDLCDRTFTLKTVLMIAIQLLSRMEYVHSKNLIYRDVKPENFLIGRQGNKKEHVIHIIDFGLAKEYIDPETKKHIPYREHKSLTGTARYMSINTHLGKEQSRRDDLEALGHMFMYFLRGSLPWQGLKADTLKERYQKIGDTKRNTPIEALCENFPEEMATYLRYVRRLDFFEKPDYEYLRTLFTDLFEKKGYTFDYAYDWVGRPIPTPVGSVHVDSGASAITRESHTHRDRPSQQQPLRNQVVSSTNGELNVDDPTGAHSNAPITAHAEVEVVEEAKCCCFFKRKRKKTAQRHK

[8] = biological target: TrkB (Homo sapiens, UniProt Q16620); settings: read-out: TrkB, % of Control
[9] = biological target: IRAK1 (Homo sapiens, UniProt P51617); settings: read-out: IRAK1, % of Control
Sequence of IRAK1 (P51617 whole entry): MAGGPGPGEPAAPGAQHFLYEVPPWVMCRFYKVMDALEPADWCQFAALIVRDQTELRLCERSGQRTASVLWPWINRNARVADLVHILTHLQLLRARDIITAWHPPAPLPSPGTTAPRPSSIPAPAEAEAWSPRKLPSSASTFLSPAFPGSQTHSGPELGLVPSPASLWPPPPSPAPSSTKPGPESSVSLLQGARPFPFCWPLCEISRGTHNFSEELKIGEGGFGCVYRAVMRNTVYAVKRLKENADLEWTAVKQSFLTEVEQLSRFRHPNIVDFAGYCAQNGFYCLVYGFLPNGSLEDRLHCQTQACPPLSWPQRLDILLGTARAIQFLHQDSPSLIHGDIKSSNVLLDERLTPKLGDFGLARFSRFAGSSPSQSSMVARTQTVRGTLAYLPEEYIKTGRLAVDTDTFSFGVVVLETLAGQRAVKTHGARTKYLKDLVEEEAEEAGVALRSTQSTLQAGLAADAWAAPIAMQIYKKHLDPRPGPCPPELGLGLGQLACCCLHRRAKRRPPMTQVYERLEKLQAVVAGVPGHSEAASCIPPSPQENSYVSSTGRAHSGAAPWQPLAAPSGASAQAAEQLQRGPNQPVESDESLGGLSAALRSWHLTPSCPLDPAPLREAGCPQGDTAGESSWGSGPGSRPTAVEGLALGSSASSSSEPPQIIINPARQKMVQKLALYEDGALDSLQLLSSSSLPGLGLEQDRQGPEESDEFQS

[10] = biological target: PAK5 (Homo sapiens, UniProt Q9P286); settings: read-out: PAK5, % of Control
Sequence of PAK5 (Q9P286 whole entry): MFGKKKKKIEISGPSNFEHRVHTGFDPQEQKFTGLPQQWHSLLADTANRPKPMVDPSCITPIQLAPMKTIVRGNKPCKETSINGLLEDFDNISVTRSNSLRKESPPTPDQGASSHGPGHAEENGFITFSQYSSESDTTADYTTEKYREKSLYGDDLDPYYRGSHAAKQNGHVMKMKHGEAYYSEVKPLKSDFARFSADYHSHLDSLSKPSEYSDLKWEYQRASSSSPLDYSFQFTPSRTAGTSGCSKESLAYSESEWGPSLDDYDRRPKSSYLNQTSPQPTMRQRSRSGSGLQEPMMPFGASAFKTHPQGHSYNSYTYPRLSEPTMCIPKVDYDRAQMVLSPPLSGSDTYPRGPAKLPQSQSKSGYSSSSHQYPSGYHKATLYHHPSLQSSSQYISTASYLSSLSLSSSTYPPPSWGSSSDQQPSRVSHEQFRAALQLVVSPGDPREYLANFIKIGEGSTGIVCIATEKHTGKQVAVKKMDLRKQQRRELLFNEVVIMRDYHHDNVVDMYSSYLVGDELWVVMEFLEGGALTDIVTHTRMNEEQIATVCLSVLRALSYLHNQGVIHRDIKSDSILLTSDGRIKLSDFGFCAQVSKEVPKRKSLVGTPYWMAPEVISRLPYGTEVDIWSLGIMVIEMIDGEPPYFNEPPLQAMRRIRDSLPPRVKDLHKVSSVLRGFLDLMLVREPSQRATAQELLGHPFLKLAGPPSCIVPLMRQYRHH

[11] = biological target: GSK3α (Homo sapiens, UniProt P49840); settings: read-out: GSK3α, % of Control
Sequence of GSK3α (P49840 whole entry): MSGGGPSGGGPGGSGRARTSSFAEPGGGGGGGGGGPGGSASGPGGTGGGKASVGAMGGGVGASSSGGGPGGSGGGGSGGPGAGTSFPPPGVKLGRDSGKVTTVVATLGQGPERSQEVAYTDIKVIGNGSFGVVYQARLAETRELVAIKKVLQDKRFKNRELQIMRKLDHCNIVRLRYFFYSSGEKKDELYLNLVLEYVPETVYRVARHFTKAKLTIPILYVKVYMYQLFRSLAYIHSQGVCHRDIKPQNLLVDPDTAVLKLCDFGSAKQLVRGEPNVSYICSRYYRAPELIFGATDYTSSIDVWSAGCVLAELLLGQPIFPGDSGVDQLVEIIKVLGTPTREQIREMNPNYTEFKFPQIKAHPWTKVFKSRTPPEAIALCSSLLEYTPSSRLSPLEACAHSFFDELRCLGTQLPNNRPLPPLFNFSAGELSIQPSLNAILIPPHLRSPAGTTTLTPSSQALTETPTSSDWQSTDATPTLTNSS

[12] = biological target: p70S6K (Homo sapiens, UniProt P23443); settings: read-out: p70S6K, % of Control
Sequence of p70S6K (P23443 whole entry): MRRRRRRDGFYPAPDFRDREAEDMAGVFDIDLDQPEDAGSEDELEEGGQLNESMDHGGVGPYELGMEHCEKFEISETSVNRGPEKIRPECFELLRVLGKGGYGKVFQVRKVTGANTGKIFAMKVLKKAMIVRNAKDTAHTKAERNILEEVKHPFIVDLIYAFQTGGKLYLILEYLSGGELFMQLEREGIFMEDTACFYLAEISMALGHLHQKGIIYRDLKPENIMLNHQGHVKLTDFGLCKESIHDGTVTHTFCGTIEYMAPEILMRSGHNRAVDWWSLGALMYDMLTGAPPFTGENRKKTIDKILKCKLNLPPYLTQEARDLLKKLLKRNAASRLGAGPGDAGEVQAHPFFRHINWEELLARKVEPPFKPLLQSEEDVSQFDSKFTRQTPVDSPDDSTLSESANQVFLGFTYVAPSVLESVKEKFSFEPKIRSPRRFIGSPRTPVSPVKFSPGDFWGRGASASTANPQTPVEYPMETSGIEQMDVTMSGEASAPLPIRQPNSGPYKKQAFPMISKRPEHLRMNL

[13] = biological target: BTK (Homo sapiens, UniProt Q06187); settings: read-out: BTK, % of Control
Sequence of BTK (Q06187 whole entry): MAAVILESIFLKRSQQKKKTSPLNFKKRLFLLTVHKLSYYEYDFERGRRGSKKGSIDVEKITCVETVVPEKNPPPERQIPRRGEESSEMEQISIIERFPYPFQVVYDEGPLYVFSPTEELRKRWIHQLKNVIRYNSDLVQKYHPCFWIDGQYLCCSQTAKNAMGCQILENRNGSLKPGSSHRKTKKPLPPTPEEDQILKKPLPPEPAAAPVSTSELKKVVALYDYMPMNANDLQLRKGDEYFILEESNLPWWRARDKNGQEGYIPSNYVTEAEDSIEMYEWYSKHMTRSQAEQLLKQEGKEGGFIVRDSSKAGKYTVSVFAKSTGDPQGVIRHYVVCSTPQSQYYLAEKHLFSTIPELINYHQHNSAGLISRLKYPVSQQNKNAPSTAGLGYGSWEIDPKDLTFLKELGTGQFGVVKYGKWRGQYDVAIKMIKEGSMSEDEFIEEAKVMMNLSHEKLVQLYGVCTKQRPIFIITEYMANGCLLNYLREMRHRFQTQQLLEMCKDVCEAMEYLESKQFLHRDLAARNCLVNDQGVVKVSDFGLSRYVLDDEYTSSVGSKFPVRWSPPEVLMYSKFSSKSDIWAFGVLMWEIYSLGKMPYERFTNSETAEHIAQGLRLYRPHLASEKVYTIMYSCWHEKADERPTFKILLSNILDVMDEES

[14] = biological target: Fer (Homo sapiens, UniProt P16591); settings: read-out: Fer, % of Control
[15] = biological target: PKBβ (Homo sapiens, UniProt P31751); settings: read-out: PKBβ, % of Control
Sequence of PKBβ (P31751 whole entry): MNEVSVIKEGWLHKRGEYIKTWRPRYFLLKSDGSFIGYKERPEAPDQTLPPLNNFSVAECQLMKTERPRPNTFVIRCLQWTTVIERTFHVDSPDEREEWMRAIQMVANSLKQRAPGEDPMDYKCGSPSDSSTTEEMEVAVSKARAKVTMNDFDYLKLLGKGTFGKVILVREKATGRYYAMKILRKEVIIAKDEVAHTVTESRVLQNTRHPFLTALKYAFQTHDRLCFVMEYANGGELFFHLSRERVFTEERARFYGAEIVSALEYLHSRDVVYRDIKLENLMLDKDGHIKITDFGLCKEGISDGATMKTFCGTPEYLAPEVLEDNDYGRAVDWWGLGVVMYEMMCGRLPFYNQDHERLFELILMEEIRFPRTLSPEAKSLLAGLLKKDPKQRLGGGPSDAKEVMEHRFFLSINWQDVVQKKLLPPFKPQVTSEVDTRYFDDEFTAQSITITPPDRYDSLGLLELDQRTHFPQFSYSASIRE

[16] = biological target: T2, Aurora-A (Homo sapiens, UniProt O14965); settings: read-out: Aurora-A, % of Control
T2 sequence (O14965 1-403): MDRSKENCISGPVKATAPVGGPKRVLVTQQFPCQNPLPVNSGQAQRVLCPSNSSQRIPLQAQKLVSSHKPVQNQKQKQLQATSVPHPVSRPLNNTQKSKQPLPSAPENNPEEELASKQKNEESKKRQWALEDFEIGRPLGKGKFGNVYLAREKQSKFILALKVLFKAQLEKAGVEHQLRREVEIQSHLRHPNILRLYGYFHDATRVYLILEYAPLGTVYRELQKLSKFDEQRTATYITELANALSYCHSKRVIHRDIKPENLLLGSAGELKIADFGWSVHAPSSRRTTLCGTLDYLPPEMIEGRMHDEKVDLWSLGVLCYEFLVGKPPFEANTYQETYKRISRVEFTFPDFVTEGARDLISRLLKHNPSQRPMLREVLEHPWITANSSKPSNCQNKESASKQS

[17] = biological target: Bmx (Homo sapiens, UniProt P51813); settings: 25 ug/ml; read-out: Bmx, % of Control

Structure (SMILES): COc1cc(O)c(CC=C(C)C)c(O)c1C(=O)/C=C/c1ccc(O)cc1 [Xanthohumol, xanthohumol]
- remaining activity at 25 µg/mL ([1]; 25 ug/ml): 41%
- remaining activity at 50 µg/mL ([1]; 50 ug/ml): 44%
- remaining activity at 1 µg/mL ([2]; 1 ug/ml): 102%
- remaining activity at 5 µg/mL ([2]; 5 ug/ml): 95%
- remaining activity at 25 µg/mL ([2]; 25 ug/ml): 61%
- remaining activity at 50 µg/mL ([2]; 50 ug/ml): 48%
- remaining activity at 1 µg/mL ([3]; 1 ug/ml): 98%
- remaining activity at 5 µg/mL ([3]; 5 ug/ml): 51%
- remaining activity at 25 µg/mL ([3]; 25 ug/ml): 22%
- remaining activity at 50 µg/mL ([3]; 50 ug/ml): 15%
- remaining activity at 1 µg/mL ([4]; 1 ug/ml): 85%
- remaining activity at 25 µg/mL ([4]; 25 ug/ml): 17%
- remaining activity at 1 µg/mL ([5]; 1 ug/ml): 105%
- remaining activity at 5 µg/mL ([5]; 5 ug/ml): 94%
- remaining activity at 25 µg/mL ([5]; 25 ug/ml): 14%
- remaining activity at 1 µg/mL ([6]; 1 ug/ml): 92%
- remaining activity at 5 µg/mL ([6]; 5 ug/ml): 50%
- remaining activity at 25 µg/mL ([6]; 25 ug/ml): 27%
- remaining activity at 50 µg/mL ([6]; 50 ug/ml): 21%
- remaining activity at 1 µg/mL ([7]; 1 ug/ml): 101%
- remaining activity at 5 µg/mL ([7]; 5 ug/ml): 79%
- remaining activity at 25 µg/mL ([7]; 25 ug/ml): 50%
- remaining activity at 50 µg/mL ([7]; 50 ug/ml): 26%
- remaining activity at 1 µg/mL ([8]; 1 ug/ml): 95%
- remaining activity at 5 µg/mL ([8]; 5 ug/ml): 89%
- remaining activity at 25 µg/mL ([8]; 25 ug/ml): 58%
- remaining activity at 50 µg/mL ([8]; 50 ug/ml): 3%
- remaining activity at 1 µg/mL ([9]; 1 ug/ml): 129%
- remaining activity at 5 µg/mL ([9]; 5 ug/ml): 104%
- remaining activity at 50 µg/mL ([9]; 50 ug/ml): 36%
- remaining activity at 1 µg/mL ([10]; 1 ug/ml): 106%
- remaining activity at 5 µg/mL ([10]; 5 ug/ml): 99%
- remaining activity at 25 µg/mL ([10]; 25 ug/ml): 42%
- remaining activity at 50 µg/mL ([10]; 50 ug/ml): 5%
- remaining activity at 1 µg/mL ([11]; 1 ug/ml): 102%
- remaining activity at 25 µg/mL ([11]; 25 ug/ml): 11%
- remaining activity at 50 µg/mL ([11]; 50 ug/ml): -4%
- remaining activity at 1 µg/mL ([12]; 1 ug/ml): 94%
- remaining activity at 5 µg/mL ([12]; 5 ug/ml): 48%
- remaining activity at 25 µg/mL ([12]; 25 ug/ml): 19%
- remaining activity at 50 µg/mL ([12]; 50 ug/ml): 7%
- remaining activity at 1 µg/mL ([13]; 1 ug/ml): 109%
- remaining activity at 5 µg/mL ([13]; 5 ug/ml): 57%
- remaining activity at 50 µg/mL ([13]; 50 ug/ml): 20%
- remaining activity at 1 µg/mL ([14]; 1 ug/ml): 55%
- remaining activity at 5 µg/mL ([14]; 5 ug/ml): 20%
- remaining activity at 25 µg/mL ([14]; 25 ug/ml): 10%
- remaining activity at 50 µg/mL ([14]; 50 ug/ml): 1%
- remaining activity at 1 µg/mL ([15]; 1 ug/ml): 146%
- remaining activity at 5 µg/mL ([15]; 5 ug/ml): 102%
- remaining activity at 25 µg/mL ([15]; 25 ug/ml): 1%
- remaining activity at 50 µg/mL ([15]; 50 ug/ml): 8%
- remaining activity at 5 µg/mL ([16]; 5 ug/ml): 27%
- remaining activity at 25 µg/mL ([16]; 25 ug/ml): 3%
- remaining activity at 50 µg/mL ([16]; 50 ug/ml): 8%
- remaining activity at 25 µg/mL [17]: 22%
